Laboratory results as given in ChEMBL document CHEMBL3352254, “Inhibitors of HGFA, Matriptase, and Hepsin Serine Proteases: A Nonkinase Strategy to Block Cell Signaling in Cancer” (ACS Med Chem Lett, 2014).
Residues, ends and D or L forms follow the SMILES beside them.

Tests used:
[1] = molecular target: T1, Suppressor of tumorigenicity 14 protein (Homo sapiens, UniProt Q9Y5Y6); experiment: Inhibition of matriptase (unknown origin) using Boc-QAR-AMC as substrate by fluorescence assay
T1 sequence (Q9Y5Y6 whole entry): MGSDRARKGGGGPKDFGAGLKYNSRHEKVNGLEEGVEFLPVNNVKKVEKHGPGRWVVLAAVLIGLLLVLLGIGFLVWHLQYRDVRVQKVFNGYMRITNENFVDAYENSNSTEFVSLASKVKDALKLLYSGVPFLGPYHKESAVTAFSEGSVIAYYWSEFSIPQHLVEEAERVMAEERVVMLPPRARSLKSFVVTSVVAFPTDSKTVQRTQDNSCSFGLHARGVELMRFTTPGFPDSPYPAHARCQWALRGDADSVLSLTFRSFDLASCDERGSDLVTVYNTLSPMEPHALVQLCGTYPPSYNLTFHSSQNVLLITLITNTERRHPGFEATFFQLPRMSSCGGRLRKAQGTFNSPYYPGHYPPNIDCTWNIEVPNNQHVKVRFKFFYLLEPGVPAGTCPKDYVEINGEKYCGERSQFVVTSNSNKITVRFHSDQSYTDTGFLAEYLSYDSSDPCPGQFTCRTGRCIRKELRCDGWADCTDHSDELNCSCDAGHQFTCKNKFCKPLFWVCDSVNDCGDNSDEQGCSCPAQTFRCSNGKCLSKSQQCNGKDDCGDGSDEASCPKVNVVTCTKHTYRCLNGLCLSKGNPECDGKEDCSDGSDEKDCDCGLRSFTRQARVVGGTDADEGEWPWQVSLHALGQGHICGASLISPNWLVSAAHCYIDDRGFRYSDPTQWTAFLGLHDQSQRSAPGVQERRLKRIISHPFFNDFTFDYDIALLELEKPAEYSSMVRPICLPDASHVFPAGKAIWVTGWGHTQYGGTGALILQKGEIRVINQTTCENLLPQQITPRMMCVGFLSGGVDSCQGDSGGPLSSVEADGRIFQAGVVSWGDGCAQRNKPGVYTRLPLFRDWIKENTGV

[2] = molecular target: T2, Hepatocyte growth factor activator serine protease (Homo sapiens) (UniProt Q04756); experiment: Inhibition of recombinant HGFA (unknown origin)-mediated proteolytic activation of pro-HGF after 1 hr by immunoblotting
T2 sequence (whole entry): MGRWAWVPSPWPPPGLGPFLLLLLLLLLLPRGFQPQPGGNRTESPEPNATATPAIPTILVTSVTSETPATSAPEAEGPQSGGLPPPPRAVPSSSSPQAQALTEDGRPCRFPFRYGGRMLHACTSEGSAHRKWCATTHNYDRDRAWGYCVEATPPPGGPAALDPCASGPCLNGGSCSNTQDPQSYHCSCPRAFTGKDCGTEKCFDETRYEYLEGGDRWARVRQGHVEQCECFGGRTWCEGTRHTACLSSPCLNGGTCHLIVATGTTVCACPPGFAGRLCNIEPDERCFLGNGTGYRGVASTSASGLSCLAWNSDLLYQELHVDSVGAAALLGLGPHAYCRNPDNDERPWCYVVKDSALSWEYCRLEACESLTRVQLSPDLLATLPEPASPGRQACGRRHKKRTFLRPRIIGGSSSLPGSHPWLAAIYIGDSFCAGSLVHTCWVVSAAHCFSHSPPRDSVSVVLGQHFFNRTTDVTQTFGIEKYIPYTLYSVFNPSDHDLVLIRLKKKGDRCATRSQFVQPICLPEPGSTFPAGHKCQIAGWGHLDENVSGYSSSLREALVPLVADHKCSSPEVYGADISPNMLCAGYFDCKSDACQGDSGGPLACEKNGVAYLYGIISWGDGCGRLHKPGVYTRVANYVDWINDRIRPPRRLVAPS

[3] = species on record: Homo sapiens; experiment: Ratio of Ki for matriptase (unknown origin) to Ki for recombinant hepsin (unknown origin)
[4] = molecular target: Serine protease hepsin (Homo sapiens, UniProt P05981); experiment: Inhibition of recombinant hepsin (unknown origin) using Boc-QAR-AMC as substrate by fluorescence assay
[5] = molecular target: T2, Hepatocyte growth factor activator serine protease (Homo sapiens); experiment: Inhibition of recombinant HGFA (unknown origin)-mediated proteolytic activation of pro-MSP after 1 hr by immunoblotting
[6] = molecular target: T3, Hepatocyte growth factor activator serine protease (Homo sapiens, UniProt Q04756); experiment: (§1) Inhibition of HGFA in human MDA-MB-231 cells assessed as inhibition of c-MET phosphorylation after 15 mins by immunoblotting; format: cell-based
T3 sequence (Q04756 whole entry): T2 sequence (whole entry)

[7] = species on record: Homo sapiens; experiment: Ratio of Ki for matriptase (unknown origin) to Ki for recombinant HGFA (unknown origin)
[8] = molecular target: T2, Hepatocyte growth factor activator serine protease (Homo sapiens); experiment: as §1; format: cell-based

Sequence of Serine protease hepsin (P05981 1-162 limits assumed): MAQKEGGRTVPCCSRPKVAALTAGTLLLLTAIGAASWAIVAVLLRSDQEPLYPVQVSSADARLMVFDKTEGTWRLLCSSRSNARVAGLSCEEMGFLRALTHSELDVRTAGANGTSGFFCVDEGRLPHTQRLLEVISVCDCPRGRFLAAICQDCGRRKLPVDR
Sequence of Serine protease hepsin (P05981 163-417 limits assumed): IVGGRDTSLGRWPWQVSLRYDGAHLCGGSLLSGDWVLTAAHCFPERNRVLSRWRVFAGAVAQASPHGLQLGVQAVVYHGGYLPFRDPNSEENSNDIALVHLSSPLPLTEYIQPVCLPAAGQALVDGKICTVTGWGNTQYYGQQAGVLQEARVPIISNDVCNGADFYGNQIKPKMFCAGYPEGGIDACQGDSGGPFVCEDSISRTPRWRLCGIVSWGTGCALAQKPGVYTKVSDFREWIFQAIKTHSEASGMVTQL

Row | Compound | Ki [1] [nM] | inhibition [2] | inhibition [5] | EC50 [6] [nM] | further results
1 | CC(=O)N[C@@H](CCCCN)C(=O)N[C@@H](Cc1cnc[nH]1)C(=O)N[C@@H](CC(C)C)C(=O)N[C@@H](CCCNC(=N)N)C(=O)c1nccs1 | 22 |  |  |  | 
2 | CC(C)C[C@H](NC(=O)[C@H](CCCNC(=N)N)NC(=O)[C@@H](N)CCCCN)C(=O)N[C@@H](CCCNC(=N)N)C(=O)O (H-KRLR-OH) |  |  |  | 180 | 
3 | CC(C)C[C@H](NC(=O)[C@H](CCC(N)=O)NC(=O)[C@@H](N)CCCCN)C(=O)N[C@@H](CCCNC(=N)N)C(=O)O (H-KQLR-OH) |  |  |  | 3100 | 
4 | CC(=O)N[C@@H](Cc1c[nH]c2ccccc12)C(=O)N[C@@H](CCC(N)=O)C(=O)N[C@@H](CC(C)C)C(=O)N[C@@H](CCCNC(=N)N)C(=O)c1nccs1 | 32 |  |  |  | 
5 | N=C(N)c1ccc2cc(OC(=O)c3ccc(N=C(N)N)cc3)ccc2c1 [NAFAMOSTAT] |  |  |  | 490 | 
6 | CC(=O)N[C@@H](CC(C)C)C(=O)N[C@@H](CC(C)C)C(=O)N[C@H](C=O)CCCNC(=N)N |  |  |  |  | Ratio Ki [7]: 3; Ratio Ki [3]: 3
7 | CC(=O)N[C@@H](Cc1c[nH]c2ccccc12)C(=O)N[C@@H](CCCNC(=N)N)C(=O)N[C@@H](CC(C)C)C(=O)N[C@@H](CCCNC(=N)N)C(=O)c1nccs1 |  | Dose-dependent effect | Dose-dependent effect |  | 

More lines, main results first:

Row | Ki [1] [nM] | inhibition [2] | inhibition [5] | EC50 [6] [nM] | Compound | further results
8 | 0.92 | Dose-dependent effect | Dose-dependent effect |  | CC(=O)N[C@@H](CCCCN)C(=O)N[C@@H](CCC(N)=O)C(=O)N[C@@H](CC(C)C)C(=O)N[C@@H](CCCNC(=N)N)C(=O)c1nccs1 | Ratio Ki [3]: 200; Ki [4]: 0.22 nM
9 |  | Dose-dependent effect | Dose-dependent effect |  | CC(=O)N[C@@H](CCCCN)C(=O)N[C@@H](CCCNC(=N)N)C(=O)N[C@@H](CC(C)C)C(=O)N[C@@H](CCCNC(=N)N)C(=O)c1nccs1 | inhibition [8]: Dose-dependent effect
10 |  |  | Dose-dependent effect |  | CC(=O)N[C@@H](CO)C(=O)N[C@@H](CCCNC(=N)N)C(=O)N[C@@H](CC(C)C)C(=O)N[C@@H](CCCNC(=N)N)C(=O)c1nccs1 | 
